“Also recorded” adds a separate entry of the source.
Assays:
[1] = test system: multidrug-resistant S. aureus; assay: Sensitization of antibiotic-resistant bacteria (compound plus breakpoint antibiotic concentration); format: cell-based, Staphylococcus aureus; details: for Effect on viability in combination with chloramphenicol: chloramphenicol 8 mg/L; for Effect on viability in combination with chloramphenicol / Effect on viability in combination with gentamicin: 24 h; for Effect on viability in combination with gentamicin: gentamicin 1 mg/L; for Gentamicin-resistant phenotype of S. aureus (result in words): gentamicin breakpoint concentration
Procedure: Clinically relevant antibiotics were selected for sensitization testing according to the European Committee on Antimicrobial Susceptibility Testing (EUCAST). Neither colistin and imipenem at breakpoint concentrations (according to EUCAST, […] and […]) affected the growth of the multidrug-resistant clinical strain of P. aeruginosa. Similarly, neither chloramphenicol and gentamicin at breakpoint concentrations ([…], respectively) affected the multidrug-resistant clinical strain of S. aureus. Flavonoids and their derivatives (1–40 µM) were used in combination therapy, along with the breakpoint concentration of antibiotics. After co-incubation, the minimum inhibitory concentration of flavonoids inhibiting the visible growth of bacteria was determined (Table 2).
Clinical isolates of P. aeruginosa and S. aureus were obtained from the General University Hospital in Prague (Prague, Czech Republic). P. aeruginosa was resistant to ciprofloxacin, oxacillin, ticarcillin, colistin, gentamicin, and imipenem. S. aureus was resistant to ciprofloxacin, gentamicin, erythromycin, chloramphenicol, clindamycin, oxacillin, cefotaxime, and vancomycin. Bacteria were cultivated in Mueller–Hinton broth (MH broth, Merck). The susceptibility of the bacteria was evaluated by the minimum inhibitory concentrations (MIC). The MIC of derivatives in the presence of the antibiotic cut-off concentration was determined according to ISO 20776-1: 2020. The antibiotic cut-off concentration was chosen according to the European Committee on Antimicrobial Susceptibility Testing (EUCAST, Clinical breakpoints—bacteria (ver. 11.0), 1 January 2021). The 40 µM concentration of the derivatives was chosen as the highest concentration for the tests. Cell viability was determined by measuring absorbance (A590 nm) after 24 h incubation at 37 °C, 150 rpm.

[2] = test system: human dermal fibroblasts (HDF); assay: Cytotoxicity (resazurin assay, 72 h); format: cell-based; details: Fibroblast
Procedure: (§1) The cytotoxicity of flavonoids and their halogenated derivatives was determined as their ability to decrease the viability of human dermal fibroblasts (HDF) and doxorubicin-resistant human ovarian carcinomas (HOC/DOX). Both cell lines were cultivated in Dulbecco’s Modified Eagle’s Medium supplemented with fetal bovine serum (FBS, 10% v/v) and 1 × antibiotic antimycotic solution and incubated at 37 °C in the atmosphere of 5% CO2. The experiment was performed according to a previously published method. Briefly, 1 × 10^5 cells/mL were seeded into a 96-well plate (100 µL/well). After 24 h, flavonoids and their derivatives were administered at the concentration range of 31.25–500 µM. After 72 h, the viability was determined by resazurin assay (0.03 mg/mL of resazurin in PBS), where the fluorescence was measured after 2 h of incubation by the SpectraMax i3x microplate reader at a wavelength of 560/590 nm (excitation/emission). The concentration inhibiting half of the population (IC50) was determined using nonlinear regression in GraphPad Prism software. The selectivity index was calculated as the ratio between the IC50 for HDF (control, non-cancerous cells) and the IC50 for HOC/DOX (cancer cells).

[3] = test system: doxorubicin-resistant human ovarian carcinoma (HOC/DOX); assay: Cytotoxicity (resazurin assay, 72 h); format: cell-based; details: for IC50: Homo sapiens, 72 h, resazurin assay; for SI (selectivity index): ratio IC50 for HDF / IC50 for HOC/DOX
Procedure: as §1

[4] = test system: P. aeruginosa (CCM, 3955); assay: Inhibition of biofilm formation (surface colonization); format: cell-based; details: Pseudomonas aeruginosa; highest tested concentration 100 µM
Procedure: Biofilm formation is a fully organized, multistep process in which bacteria are constantly communicating with each other.
The activity of derivatives on biofilms was tested with S. aureus (ATCC, 25923) and P. aeruginosa (CCM, 3955), according to the previously described method. The highest tested concentration of derivatives was 100 µM. The activity was evaluated using an IC50 comparison between the parent compound and its derivative.

[5] = test system: murine macrophages (RAW 264.7); assay: Cell viability in the nitric oxide assay (resazurin assay); format: cell-based; details: RAW 264.7, nitric oxide assay
Procedure: The anti-inflammatory activity of the tested flavonolignans was determined as the ability to reduce nitric oxide production by murine macrophages (RAW 264.7) stimulated by bacterial lipopolysaccharides, as previously described. […] For the experiment, 1 × 10^6 cells/mL was seeded into the 96-well plate (100 µL/well). […] After 24 h, the medium was mixed with Griess reagent (0.04 g/mL), prepared freshly in deionized water at the ratio of 1:1. The absorbance was measured after 15 min at 540 nm by the SpectraMax i3x microplate reader. Cell viability was determined by resazurin assay.

| SMILES | Effect on viability in combination with chloramphenicol ([1]; flavonoid 40 µM) | Effect on viability in combination with gentamicin ([1]; flavonoid 40 µM) | IC50 [2] [µM] | IC50 [3] [µM] | SI (selectivity index) [3] | IC50 [4] [µM] | Effect on viability in combination with gentamicin ([1]; flavonoid 5 µM) | Gentamicin-resistant phenotype of S. aureus (result in words) ([1]; compound 5 µM) | Growth in combination with chloramphenicol ([1]; chloramphenicol breakpoint concentration, compound 40 µM as stated in the text) [%] | Concentration above which the cell viability decreased [5] [µM] | Gentamicin-resistant phenotype of S. aureus (result in words) ([1]; compound 40 µM) |
| --- | --- | --- | --- | --- | --- | --- | --- | --- | --- | --- | --- |
| COc1cc([C@H]2Oc3cc([C@H]4Oc5cc(O)cc(O)c5C(=O)[C@@H]4O)ccc3O[C@@H]2CO)ccc1O [3a, silybin A, reference compound] | - | - | 109 | 236 | 0.46 | 77 |  |  |  |  |  |
| COc1cc([C@@H]2Oc3cc([C@H]4Oc5cc(O)cc(O)c5C(=O)[C@@H]4O)ccc3O[C@H]2CO)ccc1O [3b, silybin B, reference compound] | - | - | 83.3 ± 5.4 | 202 | 0.41 | 105 |  |  |  |  |  |
| O=C1c2c(O)cc(O)cc2OC(c2ccc(O)c(O)c2)C1O (stereo not shown) [compound 1, taxifolin, reference compound] | - |  | 93.8 ± 3.7 | 183 | 0.51 |  |  |  |  |  |  |
| O=c1c(O)c(-c2ccc(O)c(O)c2)oc2cc(O)cc(O)c12 [compound 2, quercetin, reference compound] | - | - | 54.8 ± 2.7 | 182 | 0.30 |  |  |  |  |  |  |
| COc1cc(C2Oc3cc(-c4oc5cc(O)cc(O)c5c(=O)c4O)ccc3OC2CO)ccc1O (stereo not shown) [compound 4, 2,3-dehydrosilybin AB, reference compound] | - |  |  | 23.5 ± 1.5 | 0.71 |  | reversion of resistance [5 µM] | reversed |  |  |  |
| COc1cc([C@@H]2Oc3c(O)cc([C@H]4Oc5cc(O)cc(O)c5C(=O)[C@@H]4O)cc3[C@H]2CO)ccc1O [compound 5, silychristin A, reference compound] | - | - | 115 | 205 | 0.56 | 73 |  |  |  |  |  |
| COc1cc([C@@H]2Oc3c(O)cc(-c4oc5cc(O)cc(O)c5c(=O)c4O)cc3[C@H]2CO)ccc1O [compound 6, 2,3-dehydrosilychristin A, reference compound] |  | - | 44.2 ± 2.1 | 75.7 ± 8.6 | 0.58 |  |  |  | 69 |  |  |
| O=C1c2c(cc(O)c(Br)c2O)O[C@H](c2ccc(O)c(O)c2)[C@H]1O [compound 7, 6-Bromotaxifolin] | - |  | 122 | 347 | 0.35 |  |  |  |  |  |  |
| O=C1c2c(O)c(Br)c(O)c(Br)c2O[C@H](c2ccc(O)c(O)c2)[C@H]1O [compound 8, 6,8-dibromotaxifolin] | - |  | 158 | 233 | 0.68 |  |  |  |  |  |  |
| O=c1c(O)c(-c2ccc(O)c(O)c2)oc2c(Br)c(O)cc(O)c12 [compound 9, 8-bromoquercetin] | - | - | 132 | 171 | 0.77 |  |  |  |  |  |  |
| O=c1c(O)c(-c2ccc(O)c(O)c2)oc2c(Br)c(O)c(Br)c(O)c12 [compound 10, 6,8-dibromoquercetin] | - | - | 55 ± 1.9 | 54.2 ± 0.3 | 1.02 |  |  |  |  |  |  |
| COc1cc([C@H]2Oc3cc([C@H]4Oc5cc(O)c(Br)c(O)c5C(=O)[C@@H]4O)ccc3O[C@@H]2CO)ccc1O [compound 11, 6-Bromosilybin A] | - |  | 95.6 ± 3 | 186 | 0.51 |  |  |  |  |  |  |
| COc1cc([C@H]2Oc3cc([C@H]4Oc5c(Br)c(O)c(Br)c(O)c5C(=O)[C@@H]4O)ccc3O[C@@H]2CO)ccc1O [compound 12, 6,8-dibromosilybin A] | - |  | 102 | 304 | 0.34 |  |  |  |  |  |  |
| COc1cc([C@@H]2Oc3cc([C@H]4Oc5cc(O)c(Br)c(O)c5C(=O)[C@@H]4O)ccc3O[C@H]2CO)ccc1O [compound 13, 6-Bromosilybin B] | - |  | 76.4 ± 1.1 | 162 | 0.47 |  |  |  |  |  |  |
| COc1cc([C@@H]2Oc3cc([C@H]4Oc5c(Br)c(O)c(Br)c(O)c5C(=O)[C@@H]4O)ccc3O[C@H]2CO)ccc1O [compound 14, 6,8-dibromosilybin B] | - |  | 128 | 231 | 0.55 |  |  |  |  |  |  |
| COc1cc(C2Oc3cc(-c4oc5c(Br)c(O)cc(O)c5c(=O)c4O)ccc3OC2CO)ccc1O (stereo not shown) [compound 16, 8-bromo-2,3-dehydrosilybin AB] | - | - | 16.9 ± 0.6 | 39.4 ± 3.4 | 0.43 |  |  |  |  | > 25 |  |
| COc1cc([C@@H]2Oc3c(O)cc(-c4oc5c(Br)c(O)cc(O)c5c(=O)c4O)cc3[C@H]2CO)ccc1O [compound 18, 8-Bromo-2,3-dehydrosilychristin A] | - | - | 66.7 ± 5.6 | 209 | 0.32 |  |  |  |  |  |  |
| COc1cc([C@H]2Oc3cc([C@H]4Oc5c(Br)c(O)c(Br)c(O)c5C(=O)[C@@H]4O)ccc3O[C@@H]2CO)cc(Br)c1O [compound 21, 6,8,21-tribromosilybin A] | - | reversion of resistance | 75 ± 2.4 | 201 | 0.37 |  |  |  |  |  | reversed the resistant phenotype to a sensitive one; also recorded: revert the resistant phenotype into a sensitive one |
| COc1cc([C@@H]2Oc3cc([C@H]4Oc5c(Br)c(O)c(Br)c(O)c5C(=O)[C@@H]4O)ccc3O[C@H]2CO)cc(Br)c1O [compound 22, 6,8,21-tribromosilybin B] | - | reversion of resistance | 85.8 ± 1.1 | 183 | 0.47 |  |  |  |  |  | reversed the resistant phenotype to a sensitive one; also recorded: revert the resistant phenotype into a sensitive one |
